Inhibition data for one molecule are collected here from PMC11576293, “New series of 4,6-diaryl pyrimidines: facile synthesis and antiproliferative activity as dual EGFR/VEGFR-2 inhibitors” (Frontiers in Chemistry, 2024).

Each structure is given as a SMILES string. Bounds are passed on as bounds.

The test system of the first experiment is NCI/ADR-RES. As to the kind of experiment: NCI-60 single-dose screen. Particulars: Homo sapiens, single dose 10 µM, '-' = no inhibition, read-out: % Growth Inhibition. The format is cell-based. A digest of the protocol: (§1)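 Single concentration of 10 μM applied to every line of the 60-cell-line NCI panel. Testing performed by NCI DTP.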
Take `COc1ccc(-c2cc(-c3ccc(Cl)cc3)nc(SC(C)C)n2)cc1OC` [Compound 26, 4-(4-Chlorophenyl)-2-(isopropylthio)-6-(3,4-dimethoxyphenyl)pyrimidine]: the inhibition at 10 µM was less than 0%.

A further experiment concerns SK-OV-3. As to the kind of experiment: NCI-60 single-dose screen. The format is cell-based. To be noted: Homo sapiens, single dose 10 µM, '-' = no inhibition, read-out: % Growth Inhibition. A digest of the protocol:
as §1
For the molecule `COc1ccc(-c2cc(-c3ccc(Cl)cc3)nc(SC(C)C)n2)cc1OC` [Compound 26, 4-(4-Chlorophenyl)-2-(isopropylthio)-6-(3,4-dimethoxyphenyl)pyrimidine], the inhibition at 10 µM is less than 0%.

The next experiment deals with 786-0. As to the kind of experiment: NCI-60 single-dose screen. The class given is cell-based. To be noted: Homo sapiens, single dose 10 µM, '-' = no inhibition, read-out: % Growth Inhibition. The procedure, abridged:
as §1
Turning to `COc1ccc(-c2cc(-c3ccc(Cl)cc3)nc(SC(C)C)n2)cc1OC` [Compound 26, 4-(4-Chlorophenyl)-2-(isopropylthio)-6-(3,4-dimethoxyphenyl)pyrimidine], the inhibition at 10 µM is less than 0%.

For a further experiment, the system named is HCC-2998. Put plainly: NCI-60 single-dose screen. The class given is cell-based. To be noted: Homo sapiens, single dose 10 µM, '-' = no inhibition, read-out: % Growth Inhibition. A digest of the protocol:
as §1
As for `COc1ccc(-c2cc(-c3ccc(Cl)cc3)nc(SC(C)C)n2)cc1OC` [Compound 26, 4-(4-Chlorophenyl)-2-(isopropylthio)-6-(3,4-dimethoxyphenyl)pyrimidine], the inhibition at 10 µM was less than 0%.

In another experiment the test system is SF-539. As to the kind of experiment: NCI-60 single-dose screen. The format is cell-based. To be noted: Homo sapiens, single dose 10 µM, '-' = no inhibition, read-out: % Growth Inhibition. The procedure, abridged:
as §1
Take `COc1ccc(-c2cc(-c3ccc(Cl)cc3)nc(SC(C)C)n2)cc1OC` [Compound 26, 4-(4-Chlorophenyl)-2-(isopropylthio)-6-(3,4-dimethoxyphenyl)pyrimidine]: the inhibition at 10 µM is less than 0%.

The subject of a further experiment is MALME-3M. As to the kind of experiment: NCI-60 single-dose screen. The class given is cell-based. To be noted: Homo sapiens, single dose 10 µM, '-' = no inhibition, read-out: % Growth Inhibition. A digest of the protocol: as §1
Take `COc1ccc(-c2cc(-c3ccc(Cl)cc3)nc(SC(C)C)n2)cc1OC` [Compound 26, 4-(4-Chlorophenyl)-2-(isopropylthio)-6-(3,4-dimethoxyphenyl)pyrimidine]: the inhibition at 10 µM is less than 0%.

The subject of a further experiment is NCI-H460. As to the kind of experiment: NCI-60 single-dose screen. The format is cell-based. Particulars: Homo sapiens, single dose 10 µM, '-' = no inhibition, read-out: % Growth Inhibition. A digest of the protocol: as §1
As to `COc1ccc(-c2cc(-c3ccc(Cl)cc3)nc(SC(C)C)n2)cc1OC` [Compound 26, 4-(4-Chlorophenyl)-2-(isopropylthio)-6-(3,4-dimethoxyphenyl)pyrimidine], the inhibition at 10 µM is less than 0%.

For another experiment, the system named is SR. Put plainly: NCI-60 single-dose screen. The class given is cell-based. To be noted: Homo sapiens, single dose 10 µM, '-' = no inhibition, read-out: % Growth Inhibition. The procedure, abridged:
as §1
Regarding `COc1ccc(-c2cc(-c3ccc(Cl)cc3)nc(SC(C)C)n2)cc1OC` [Compound 26, 4-(4-Chlorophenyl)-2-(isopropylthio)-6-(3,4-dimethoxyphenyl)pyrimidine], the inhibition at 10 µM was determined as 12.6%.

For a further experiment, the system named is NCI-H322M. As to the kind of experiment: NCI-60 single-dose screen. The class given is cell-based. Particulars: Homo sapiens, single dose 10 µM, '-' = no inhibition, read-out: % Growth Inhibition. The procedure, abridged:
as §1
For the molecule `COc1ccc(-c2cc(-c3ccc(Cl)cc3)nc(SC(C)C)n2)cc1OC` [Compound 26, 4-(4-Chlorophenyl)-2-(isopropylthio)-6-(3,4-dimethoxyphenyl)pyrimidine], the inhibition at 10 µM came to 1.11%.

In the next experiment the test system is SNB-75. As to the kind of experiment: NCI-60 single-dose screen. The class given is cell-based. Particulars: Homo sapiens, single dose 10 µM, '-' = no inhibition, read-out: % Growth Inhibition. The procedure, abridged: as §1
`COc1ccc(-c2cc(-c3ccc(Cl)cc3)nc(SC(C)C)n2)cc1OC` [Compound 26, 4-(4-Chlorophenyl)-2-(isopropylthio)-6-(3,4-dimethoxyphenyl)pyrimidine]: the inhibition at 10 µM is less than 0%.

In a further experiment the test system is ACHN 1. As to the kind of experiment: NCI-60 single-dose screen. The format is cell-based. To be noted: Homo sapiens, single dose 10 µM, '-' = no inhibition, read-out: % Growth Inhibition. A digest of the protocol:
as §1
With `COc1ccc(-c2cc(-c3ccc(Cl)cc3)nc(SC(C)C)n2)cc1OC` [Compound 26, 4-(4-Chlorophenyl)-2-(isopropylthio)-6-(3,4-dimethoxyphenyl)pyrimidine], the inhibition at 10 µM was less than 0%.

The next experiment concerns COLO 205. Put plainly: NCI-60 single-dose screen. The class given is cell-based. To be noted: Homo sapiens, single dose 10 µM, '-' = no inhibition, read-out: % Growth Inhibition. A digest of the protocol:
as §1
Consider `COc1ccc(-c2cc(-c3ccc(Cl)cc3)nc(SC(C)C)n2)cc1OC` [Compound 26, 4-(4-Chlorophenyl)-2-(isopropylthio)-6-(3,4-dimethoxyphenyl)pyrimidine], for which the inhibition at 10 µM is less than 0%.

The next experiment deals with T-47D. As to the kind of experiment: NCI-60 single-dose screen. The class given is cell-based. To be noted: Homo sapiens, T47D, single dose 10 µM, '-' = no inhibition, read-out: % Growth Inhibition. A digest of the protocol:
as §1
`COc1ccc(-c2cc(-c3ccc(Cl)cc3)nc(SC(C)C)n2)cc1OC` [Compound 26, 4-(4-Chlorophenyl)-2-(isopropylthio)-6-(3,4-dimethoxyphenyl)pyrimidine]: the inhibition at 10 µM came to 14.2%.

In a further experiment the test system is LOX IMVI. As to the kind of experiment: NCI-60 single-dose screen. The class given is cell-based. Particulars: Homo sapiens, single dose 10 µM, '-' = no inhibition, read-out: % Growth Inhibition. A digest of the protocol:
as §1
Take `COc1ccc(-c2cc(-c3ccc(Cl)cc3)nc(SC(C)C)n2)cc1OC` [Compound 26, 4-(4-Chlorophenyl)-2-(isopropylthio)-6-(3,4-dimethoxyphenyl)pyrimidine]: the inhibition at 10 µM was found to be 4.14%.

The next experiment deals with SK-MEL-2. As to the kind of experiment: NCI-60 single-dose screen. To be noted: Homo sapiens, single dose 10 µM, '-' = no inhibition, read-out: % Growth Inhibition. The class given is cell-based. A digest of the protocol:
as §1
As for `COc1ccc(-c2cc(-c3ccc(Cl)cc3)nc(SC(C)C)n2)cc1OC` [Compound 26, 4-(4-Chlorophenyl)-2-(isopropylthio)-6-(3,4-dimethoxyphenyl)pyrimidine], the inhibition at 10 µM is less than 0%.

A further experiment has as its system A498. As to the kind of experiment: NCI-60 single-dose screen. The format is cell-based. To be noted: Homo sapiens, single dose 10 µM, '-' = no inhibition, read-out: % Growth Inhibition. The procedure, abridged: as §1
Turning to `COc1ccc(-c2cc(-c3ccc(Cl)cc3)nc(SC(C)C)n2)cc1OC` [Compound 26, 4-(4-Chlorophenyl)-2-(isopropylthio)-6-(3,4-dimethoxyphenyl)pyrimidine], the inhibition at 10 µM is less than 0%.

Another experiment deals with TK-10. Put plainly: NCI-60 single-dose screen. The format is cell-based. To be noted: Homo sapiens, single dose 10 µM, '-' = no inhibition, read-out: % Growth Inhibition. A digest of the protocol: as §1
Turning to `COc1ccc(-c2cc(-c3ccc(Cl)cc3)nc(SC(C)C)n2)cc1OC` [Compound 26, 4-(4-Chlorophenyl)-2-(isopropylthio)-6-(3,4-dimethoxyphenyl)pyrimidine], the inhibition at 10 µM was less than 0%.

The test system of another experiment is OVCAR-5. Put plainly: NCI-60 single-dose screen. Particulars: Homo sapiens, single dose 10 µM, '-' = no inhibition, read-out: % Growth Inhibition. The class given is cell-based. A digest of the protocol: as §1
With `COc1ccc(-c2cc(-c3ccc(Cl)cc3)nc(SC(C)C)n2)cc1OC` [Compound 26, 4-(4-Chlorophenyl)-2-(isopropylthio)-6-(3,4-dimethoxyphenyl)pyrimidine], the inhibition at 10 µM is less than 0%.

For another experiment, the system named is SNB-19. Put plainly: NCI-60 single-dose screen. The class given is cell-based. Particulars: Homo sapiens, single dose 10 µM, '-' = no inhibition, read-out: % Growth Inhibition. A digest of the protocol:
as §1
In the case of `COc1ccc(-c2cc(-c3ccc(Cl)cc3)nc(SC(C)C)n2)cc1OC` [Compound 26, 4-(4-Chlorophenyl)-2-(isopropylthio)-6-(3,4-dimethoxyphenyl)pyrimidine], the inhibition at 10 µM worked out at 3.77%.

Another experiment has as its system EKVX. Put plainly: NCI-60 single-dose screen. The class given is cell-based. Particulars: Homo sapiens, single dose 10 µM, '-' = no inhibition, read-out: % Growth Inhibition. A digest of the protocol: as §1
As to `COc1ccc(-c2cc(-c3ccc(Cl)cc3)nc(SC(C)C)n2)cc1OC` [Compound 26, 4-(4-Chlorophenyl)-2-(isopropylthio)-6-(3,4-dimethoxyphenyl)pyrimidine], the inhibition at 10 µM amounted to 4.59%.

The subject of another experiment is HL-60(TB). As to the kind of experiment: NCI-60 single-dose screen. The format is cell-based. To be noted: Homo sapiens, single dose 10 µM, '-' = no inhibition, read-out: % Growth Inhibition.
On to `COc1ccc(-c2cc(-c3ccc(Cl)cc3)nc(SC(C)C)n2)cc1OC` [Compound 26, 4-(4-Chlorophenyl)-2-(isopropylthio)-6-(3,4-dimethoxyphenyl)pyrimidine], for which the inhibition at 10 µM worked out at 14.5%.

For the next experiment, the system named is BT-549. Put plainly: NCI-60 single-dose screen. The format is cell-based. To be noted: Homo sapiens, single dose 10 µM, '-' = no inhibition, read-out: % Growth Inhibition. The procedure, abridged: as §1
`COc1ccc(-c2cc(-c3ccc(Cl)cc3)nc(SC(C)C)n2)cc1OC` [Compound 26, 4-(4-Chlorophenyl)-2-(isopropylthio)-6-(3,4-dimethoxyphenyl)pyrimidine]: the inhibition at 10 µM is less than 0%.

A further experiment deals with SK-MEL-28. As to the kind of experiment: NCI-60 single-dose screen. The class given is cell-based. To be noted: Homo sapiens, single dose 10 µM, '-' = no inhibition, read-out: % Growth Inhibition. The procedure, abridged:
as §1
Turning to `COc1ccc(-c2cc(-c3ccc(Cl)cc3)nc(SC(C)C)n2)cc1OC` [Compound 26, 4-(4-Chlorophenyl)-2-(isopropylthio)-6-(3,4-dimethoxyphenyl)pyrimidine], the inhibition at 10 µM is less than 0%.
